Measurements reported in US8084481B2, “Substituted arylimidazolone and triazolone as inhibitors of vasopressin receptors” (Bayer Pharma Aktiengesellschaft, priority 2006, dated 2011).

How the values were obtained:
human V2 receptor = target: T1, human V2 receptor (Homo sapiens, UniProt P30518); assay: Cellular in vitro test for determination of the vasopressin receptor activity (aequorin luminescence, CHO cells), human V2; assay type: cell-based; conditions: cell line transfected with the human V2 receptor, antagonism of [Arg8]-vasopressin, read-out: IC50 hV2
T1 construct: expressed in transfected cells; host or cells: CHO K1 (ATCC), constitutively expressing a modified aequorin and stably co-transfected with promiscuous G-alpha-16
Description: (§1) B-1. Cellular In Vitro Test for Determination of the Vasopressin Receptor Activity
(§2) The identification of agonists and antagonists of the V1a- and V2-vasopressin receptors in man and the rat and the quantification of the activity of the compounds according to the invention are effected by means of recombinant cell lines. These cells are originally derived from the ovarian epithelial cells of the hamster (Chinese Hamster Ovary, CHO K1, ATCC: American Type Culture Collection, Manassas, Va. 20108, USA). The test cell lines constitutively express a modified form of the calcium-sensitive photoprotein aequorin, which after reconstitution with the cofactor coelenterazine emits light on an increase in the free calcium concentrations [Rizzuto R, Simpson A W, Brini M, Pozzan T, Nature 358, 325-327 (1992)]. In addition, the cells are stably transfected with human or rat V1a- or V2 receptors. In the case of the Gs-coupled V2 receptors, the cells are stably transfected with a further gene which codes for the promiscuous Gα16-Protein [Amatruda T T, Steele D A, Slepak V Z, Simon M I, Proceedings of the National Academy of Science USA 88, 5587-5591 (1991)]. The resulting vasopressin receptor test cells react to stimulation of the recombinantly expressed vasopressin receptors with an intracellular release of calcium ions, which can be quantified by the resulting aequorin luminescence with a suitable luminometer [Milligan G, Marshall F, Rees S, Trends in Pharmacological Sciences 17, 235-237 (1996)].
(§3) On the day before the text, the cells are plated out in culture medium (DMEM, 10% FCS, 2 mM glutamine, 10 mM HEPES) in 384-well microtitre plates and kept in a cell incubator (96% atmospheric humidity, 5% v/v CO2, 37° C.). On the test day, the culture medium is replaced by a Tyrode solution (140 mM NaCl, 5 mM KCl, 1 mM MgCl2, 2 mM CaCl2, 20 mM glucose, 20 mM HEPES) which in addition contains the cofactor coelenterazine (50 μM), and the microtitre plate is then incubated for a further 3-4 hours. The test substances in various concentrations are placed beforehand in the wells of the microtitre plate for 10 to 20 minutes, before the agonist [Arg^8]-vasopressin is added and the resulting light signal immediately measured in the luminometer. The IC50 values are calculated by means of the computer program GraphPad PRISM (Version 3.02).

human V1a receptor = target: T2, human V1a receptor (Homo sapiens, UniProt P37288); assay: Cellular in vitro test for determination of the vasopressin receptor activity (aequorin luminescence, CHO cells), human V1a; assay type: cell-based; conditions: cell line transfected with the human V1a receptor, antagonism of [Arg8]-vasopressin, read-out: IC50 hV1a
T2 construct: expressed in transfected cells; host or cells: CHO K1 (ATCC), constitutively expressing a modified aequorin
Description: as §1, §2, §3

T1 sequence (P30518 whole entry): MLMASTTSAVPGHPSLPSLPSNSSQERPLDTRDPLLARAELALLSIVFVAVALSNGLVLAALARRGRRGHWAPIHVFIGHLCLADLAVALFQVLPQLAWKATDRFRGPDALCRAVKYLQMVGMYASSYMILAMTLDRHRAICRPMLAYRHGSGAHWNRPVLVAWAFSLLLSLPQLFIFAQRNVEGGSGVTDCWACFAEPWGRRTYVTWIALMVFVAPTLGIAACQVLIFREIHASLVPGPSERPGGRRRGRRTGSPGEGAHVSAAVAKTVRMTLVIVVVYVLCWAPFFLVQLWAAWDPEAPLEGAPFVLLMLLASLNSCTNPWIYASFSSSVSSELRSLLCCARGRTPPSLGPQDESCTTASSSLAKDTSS
T2 sequence (P37288 whole entry): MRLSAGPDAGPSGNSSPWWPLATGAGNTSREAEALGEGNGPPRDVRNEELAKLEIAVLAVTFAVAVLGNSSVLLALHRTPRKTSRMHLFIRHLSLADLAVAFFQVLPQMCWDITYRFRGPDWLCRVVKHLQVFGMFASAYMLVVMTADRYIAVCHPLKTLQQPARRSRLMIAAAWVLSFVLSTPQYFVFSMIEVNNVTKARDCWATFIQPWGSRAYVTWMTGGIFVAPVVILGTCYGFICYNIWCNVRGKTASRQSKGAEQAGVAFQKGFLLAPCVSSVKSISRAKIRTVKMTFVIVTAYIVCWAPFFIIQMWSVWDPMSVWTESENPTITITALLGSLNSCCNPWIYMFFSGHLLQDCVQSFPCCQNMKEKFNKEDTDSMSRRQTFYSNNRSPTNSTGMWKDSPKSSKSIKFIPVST

IC50 (human V2 receptor) [nM] | IC50 (human V1a receptor) [nM] | Compound
420 | 440 | COc1ccccc1CCNC(=O)Cn1nc(-c2ccc(Cl)cc2)n(C2CC2)c1=O [Example 159]
63 | 230 | Cc1c(-c2ccc(Cl)cc2)n(C2CC2)c(=O)n1CC(=O)N[C@@H](C)c1cccc2ccccc12 [Example 207]
260 | 140 | CCn1c(-c2ccc(Cl)cc2)cn(CC(=O)NC(C)c2cccc(C(F)(F)F)c2)c1=O (stereo not shown) [Example 209]
180 | 6300 | CC(C(=O)NC(C)(C)c1cccc(C(F)(F)F)c1)n1cc(-c2ccc(Cl)cc2)n(C2CC2)c1=O (stereo not shown) [Example 214]
6 | 73 | COc1cc(Cl)ccc1-c1nn(CC(=O)NC(C)(C)c2cccc(C(F)(F)F)c2)c(=O)n1Cc1ccccc1F [Example 216, 2-[3-(4-chloro-2-methoxyphenyl)-4-(2-fluorobenzyl)-5-oxo-4,5-dihydro-1H-1,2,4-triazol-1-yl]-N-[1-methyl-1-(3-trifluoromethyl-phenyl)ethyl]-acetamide]
9 | 90 | Cc1ccc(-c2nn(CC(=O)NC(C)(C)c3cccc(C(F)(F)F)c3)c(=O)n2Cc2ccccc2F)s1 [Example 219]
30 | 165 | CC(C)(NC(=O)Cn1nc(-c2ccc(F)c(F)c2)n(Cc2ccccc2F)c1=O)c1cccc(C(F)(F)F)c1 [Example 221]
37 | 8 | COc1cc(Cl)ccc1-c1nn(CC(=O)NCc2ccccc2C(F)(F)F)c(=O)n1Cc1ccccc1F [Example 227]
83 | 783 | CC(C)(NC(=O)Cn1nc(-c2ccc(Cl)cc2Cl)n(C2CC2)c1=O)c1cccc(C(F)(F)F)c1 [Example 230]
271 | 76 | Cc1cc(Cl)ccc1-c1nn(CC(=O)NCCc2ccccc2C(F)(F)F)c(=O)n1Cc1ccccc1F [Example 241]
13 | 37 | C[C@H](NC(=O)Cn1nc(-c2ccc(Cl)s2)n(Cc2ccccc2F)c1=O)c1cccc(C(F)(F)F)c1 [Example 251]
447 | 18 | CC(NC(=O)Cn1nc(-c2ccc(Cl)s2)n(Cc2ccccc2F)c1=O)c1nccc2ccccc12 (stereo not shown) [Example 252]
154 | 30 | O=C(Cn1nc(-c2ccccc2O)n(Cc2cccc(F)c2)c1=O)NCCc1ccccc1C(F)(F)F [Example 260]
5 | 157 | COc1cc(Cl)ccc1-c1nn(CC(=O)NC(C)(C)c2cccc(C(F)(F)F)c2)c(=O)n1Cc1cccc(F)c1 [Example 262]
749 | 28 | CN(C)C(CNC(=O)Cn1nc(-c2ccc(Cl)cc2)n(Cc2ccccc2F)c1=O)c1ccccc1Cl (stereo not shown) [Example 265]
191 | 9 | O=C(Cn1nc(-c2ccc(Cl)cc2)n(Cc2ccccc2F)c1=O)NC1(Cc2ccccc2C(F)(F)F)CC1 [Example 284]
666 | 761 | O=C(Cn1nc(-c2ccc(Cl)cc2)n(Cc2ccccc2F)c1=O)NCc1c(C(F)(F)F)cccc1C(F)(F)F [Example 288]
9 | 54 | O=C(Cn1nc(-c2ccc(Cl)cc2)n(Cc2ccccc2F)c1=O)NCc1cccc(C(F)(F)F)c1Cl [Example 296]
784 | 93 | O=C(Cn1nc(-c2ccc(Cl)cc2)n(C2CC2)c1=O)NCC1(c2ccccc2F)CCCC1 [Example 305]
1020 | 3 | CC(C)(CNC(=O)Cn1nc(-c2ccc(Cl)cc2)n(C2CC2)c1=O)c1ccccc1C(F)(F)F [Example 313]
1520 | 24 | O=C(Cn1nc(-c2ccc(Cl)cc2)n(C2CC2)c1=O)NC1(Cc2ccccc2C(F)(F)F)CC1 [Example 320]
510 | 50 | COC(=O)[C@@H](Cc1ccccc1C(F)(F)F)NC(=O)Cn1nc(-c2ccc(Cl)cc2)n(C2CC2)c1=O [Example 321]
28 | 107 | Cc1c(CNC(=O)Cn2nc(-c3ccc(Cl)cc3)n(C3CC3)c2=O)cccc1C(F)(F)F [Example 325]
